This passage reports ED (20 mm Hg) results from EP0285287A2, “3-Benzazepine compounds for use in treating gastrointestinal motility disorders” (SMITHKLINE BECKMAN CORPORATION, priority 1987, dated 1988).

In this experiment the test system is lower esophageal sphincter (LES). Description: Determination of LES pressure in the anesthetized dog. Type of experiment: in vivo, dogs. The settings on record: Canis lupus familiaris, mean ED20 = dose which increases LES pressure 20 mm Hg (N>=3). The method, then:
Methods for Determination of LES Pressure in the Anesthetized Dog
Mongrel or beagle dogs, male and female, are anesthetized using sodium pentobarbital (35.0 mg/kg., i.v.). Sodium pentobarbital is then continuously infused (approximately 6.0 mg/kg/hr) to maintain deep anesthesia. Blood pressure is monitored via a catheter surgically implanted into the femoral artery and attached to a Gould-Statham P23ID transducer. A catheter is also implanted into the femoral vein to administer test drugs. Respiration is maintained by an endotracheal tube attached to a respirator. A continuously perfused manometric catheter system including a Dent sleeve to measure sphincter pressure (Dent, Gastroenterology 71:263-267, 1976) is inserted into the esophagus and positioned so that intraluminal pressure is recorded from the body of the esophagus, the lower esophageal sphincter (LES) and the fundus of the stomach. The Dent sleeve catheter is perfused at a rate of 0.5 ml of water per minute for each lumen of the catheter by using an Arndorfer Hydraulic Capillary Infusion System. A cannula is implanted into the gastric antrum to allow drainage of the perfusate solution and prevent intestinal distension. Continuous tracings of esophageal, LES and fundus pressure are monitored on a Grass Polygraph (Model 7D). Correct positioning of the Dent sleeve is verified by noting a high pressure zone at the LES and by administration of an intravenous dose of 5-HT (usually 10-15 mcg/kg) which contracts the LES while having little or no recordable effect on either the body of the esophagus or the fundus. After verification of placement of the sleeve, the animal is allowed to stabilize for approximately 30 minutes.
Compounds are administered intravenously or intraduodenally. In most cases, succeeding doses of the same or different compounds are given only after the LES pressure has returned to approximate pre-dosing baseline values. In all cases, the magnitude of change in LES pressure is determined from the baseline pressure immediately prior to each treatment to the maximum pressure during treatment. Since the compounds used usually produce an immediate effect on LES pressure, no pretreatment time prior to measurement is necessary during this testing.
Direct assay techniques are used to estimate an Effective Dose 20 (ED₂₀) for the test compound in individual animals. The mean ED₂₀ and 95% confidence limits are determined using the individual ED₂₀ values from a group of animals (N= ≧3) that received the same treatment. The ED₂₀ is the dose which increases LES pressure 20 mm Hg.

Setting [1] is: intravenous, read-out: ED20 in mcg/kg i.v.
Setting [2] is: intraduodenal, read-out: ED20 in mcg/kg i.d.

Where two headings read alike, the source gives them in different places.

Regarding `Oc1ccc2c(c1)CCNCC2` [Compound 4, 7-hydroxy-2,3,4,5-tetrahydro-1H-3-benzazepine], the ED (20 mm Hg) under setting [1] came out at 348 µg/kg.

As for `CSc1ccc2c(c1)CCN(C)CC2` [Compound 3, 3-methyl-7-methylthio-2,3,4,5-tetra-hydro-1H-3-benzazepine], the ED (20 mm Hg) runs as follows: under setting [2], 236 µg/kg; under setting [1], 273 µg/kg.

`CN1CCc2cc(Sc3ccccc3)c([N+](=O)[O-])cc2CC1` [Compound 5, 3-methyl-7-nitro-8-phenylthio-2,3,4,5-tetrahydro-1H-3-benzazepine]: under setting [1], the ED (20 mm Hg) is 1200 µg/kg.

As to `CN1CCc2cc(O)c(Sc3ccccc3)cc2CC1` [Compound 2, 8-hydroxy-3-methyl-7-phenylthio-2,3 4,5-tetrahydro-1H-3-benzazepine], the ED (20 mm Hg) is roughly 1000 µg/kg under setting [2] and 14 µg/kg under setting [1].

With `CN1CCc2ccc(O)c(Sc3ccccc3)c2CC1` [Compound 1, 7-hydroxy-3-methyl-6-phenylthio-2,3 4,5-tetrahydro-1H-3-benzazepine], the ED (20 mm Hg) by setting is: under setting [2], 263 µg/kg; under setting [1], 63 µg/kg.
